The record followed here is publication PMC12028158, “Synthesis and In Vitro Evaluation of the Anticancer Effect of Novel Phosphonium Vindoline Derivatives” (International Journal of Molecular Sciences, 2025).

Type in all cases: cell-based
Assay [1] concerns SK-MEL-2. Nature of the assay: NCI60 one-dose screen. Particulars: Homo sapiens, SK-MEL-2, read-out: Growth percent.
In assay [2] the test system is MDA-MB-435. In words: NCI60 one-dose screen. The settings on record: Homo sapiens, MDA-MB-435, read-out: Growth percent.
The subject of assay [3] is NCI-H23. In words: NCI60 one-dose screen. Particulars: Homo sapiens, NCI-H23, read-out: Growth percent.
The test system of assay [4] is SK-MEL-5. In words: NCI60 one-dose screen. Particulars: Homo sapiens, SK-MEL-5, read-out: Growth percent.
Assay [5] relates to CCRF-CEM. In words: NCI60 one-dose screen. The settings on record: Homo sapiens, read-out: Growth percent.
Assay [6] has as its system HS 578T. Nature of the assay: NCI60 one-dose screen. The settings on record: Homo sapiens, Hs-578T, read-out: Growth percent.
For assay [7], the system named is SF-539. In words: NCI60 one-dose screen. The settings on record: Homo sapiens, SF-539, read-out: Growth percent.
For assay [8], the system named is EKVX. Nature of the assay: NCI60 one-dose screen. The settings on record: Homo sapiens, read-out: Growth percent.
The test system of assay [9] is 60 human tumor cell lines (NCI60). Nature of the assay: NCI60 one-dose screen, overall mean. Particulars: Homo sapiens, 60 cell, read-out: Mean growth percent.
Assay [10] has as its system SF-268. In words: NCI60 one-dose screen. The settings on record: Homo sapiens, SF-268, read-out: Growth percent.
Assay [11] has as its system IGROV1. Nature of the assay: NCI60 one-dose screen. Particulars: Homo sapiens, IGROV-1, read-out: Growth percent.
In assay [12] the test system is ACHN. Nature of the assay: NCI60 one-dose screen. Particulars: Homo sapiens, read-out: Growth percent.
The subject of assay [13] is DU-145. In words: NCI60 one-dose screen. The settings on record: Homo sapiens, DU-145, read-out: Growth percent.
The subject of assay [14] is SNB-19. Nature of the assay: NCI60 one-dose screen. The settings on record: Homo sapiens, SNB-19, read-out: Growth percent.
Assay [15] concerns LOX IMVI. In words: NCI60 one-dose screen. Particulars: Homo sapiens, read-out: Growth percent.
In assay [16] the test system is NCI-H460. In words: NCI60 one-dose screen. The settings on record: Homo sapiens, NCI-H460, read-out: Growth percent.
Assay [17] concerns MALME-3M. Nature of the assay: NCI60 one-dose screen. Particulars: Homo sapiens, Malme-3M, read-out: Growth percent.
Assay [18] has as its system HT29. In words: NCI60 one-dose screen. Particulars: Homo sapiens, HT-29, read-out: Growth percent.

On to `CCC12C=CCN3CC[C@@]4(c5ccc(OC)cc5N(C)[C@H]4[C@@](O)(C(=O)OC)[C@@H]1OC(C)=O)[C@@H]32` (stereo partly drawn) [compound 2, vindoline], for which the activity at 10 µM was 107% in assay [1]; 105% in [2]; 103% in [3]; 102% in assay [4]; 96.5% in [5]; 113% in [6]. Also, the activity at 10 µM in assay [7] stood at 104%; in assay [8] it was 102%; in [9] it was 100%; in [10] it was 100%; in assay [11] it was 98.4%; in assay [12], 101%. Moreover, the activity at 10 µM in assay [13] came to 107%; in [14] it was 96.6%; in assay [15] it was 99.4%; in assay [16], 104%; in [17], 98%; in [18] it was 98.5%.
